Some test systems named below: NCI-H23; SNB-75; K562; SR; A549; U-251; UACC-257; NCI-H460; SN12C; LXFL 529; CCRF-CEM; HL-60; TK-10; HOP-62; OVCAR-3; EKVX; Hs-578T; NCI/ADR-RES; T47D; MDA-MB-435.
Common to all, as to assay: DTP human tumour cell line panel, 48 h

The text below walks through data of ChEMBL document CHEMBL1201862, “PubChem BioAssay data set” (2004).

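Tested at 5 concentrations; 48 h exposure; 96-well plates; endpoints linearly interpolated, else capped at highest concentration. GI50 marks 50% less growth.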 Calls of active or inactive are those of the source. Cut-off read from the data, not from the text of the source: active = GI50 up to about 1.1 µM and inactive = higher.

As a reminder, the GI50 is the concentration that inhibits growth by half.

Regarding `O=c1c2ccccc2nc(-c2ccccc2)n1NC(=S)Nc1cccc(Cl)c1`, the GI50 is > 100 µM (inactive) in the experiment with NCI-H23; 28.4 µM (inactive) in the experiment with SNB-75; > 100 µM (inactive) in the experiment with K562; > 100 µM (inactive) in the experiment on SR; > 100 µM (inactive) in the experiment on A549; 43.8 µM (inactive) with U-251. Also, the GI50 in the experiment with UACC-257, in the experiment with NCI-H460, in the experiment on SN12C, in the experiment with LXFL 529, with CCRF-CEM and in the experiment with HL-60 was > 100 µM (inactive) throughout. Moreover, the GI50 in the experiment with TK-10 was 36.6 µM (inactive); in the experiment with HOP-62 it was 60.3 µM (inactive).

Regarding `COC(=O)NN=C1C(C)(C)C(=O)C1(C)C`, the GI50 with NCI-H23, with SNB-75, with K562, with A549, in the experiment with U-251 and in the experiment with UACC-257 was > 100 µM (inactive) each time. For the same compound, the GI50 in the experiment on OVCAR-3, with NCI-H460, in the experiment with LXFL 529, in the experiment with CCRF-CEM, with HL-60 and in the experiment with TK-10 was > 100 µM (inactive) in each case. In addition, the GI50 in the experiment with HOP-62 and in the experiment on EKVX was > 100 µM (inactive) throughout.

Turning to `CSC(C1c2ccccc2N(C)c2[nH]c(=O)n(C)c(=O)c21)S(=O)(=O)c1ccc(C)cc1` (stereo not drawn), the GI50 is 54.8 µM (inactive) with NCI-H23; 68.5 µM (inactive) with SNB-75; 43.6 µM (inactive) in the experiment on K562; > 100 µM (inactive) in the experiment with A549; > 100 µM (inactive) in the experiment on U-251; 60 µM (inactive) in the experiment with UACC-257. Moreover, the GI50 in the experiment on OVCAR-3 was > 100 µM (inactive); in the experiment with SN12C, > 100 µM (inactive); in the experiment on LXFL 529, 56.4 µM (inactive); in the experiment on CCRF-CEM it was 33.3 µM (inactive); with HL-60, 50.2 µM (inactive); in the experiment with TK-10, > 100 µM (inactive). For the same compound, the GI50 in the experiment with HOP-62 is > 100 µM (inactive); with EKVX, 33.6 µM (inactive).

Regarding `COc1cc([C@@H]2c3cc4c(cc3[C@@H](NC(=O)c3ccc(C#N)cc3)C3COC(=O)[C@@H]32)OCO4)cc(OC)c1O` (stereo partly drawn), the GI50 was 0.198 µM (active) in the experiment on NCI-H23; 0.673 µM (active) in the experiment with SNB-75; 1.63 µM (inactive) with K562; < 0.01 µM (active) in the experiment with A549; 0.106 µM (active) in the experiment with U-251; 2.58 µM (inactive) with UACC-257. Besides, the GI50 in the experiment on OVCAR-3 is 1.85 µM (inactive); with NCI-H460 it was < 0.01 µM (active); with SN12C, 0.207 µM (active); in the experiment on LXFL 529, 4.61 µM (inactive); in the experiment on CCRF-CEM, 0.0803 µM (active); in the experiment with HL-60, 0.138 µM (active). The GI50 in the experiment with TK-10 is 1.81 µM (inactive); in the experiment with HOP-62, 0.113 µM (active); in the experiment with EKVX it was 0.979 µM (active).

For the compound `COc1ccc(NCC#N)cc1`, the GI50 is > 100 µM (inactive) in the experiment on NCI-H23; 76.2 µM (inactive) with SNB-75; > 100 µM (inactive) in the experiment with K562; > 100 µM (inactive) with SR; > 100 µM (inactive) in the experiment with A549; > 100 µM (inactive) with U-251. Further, the GI50 with UACC-257, with OVCAR-3, in the experiment with NCI-H460, with SN12C, in the experiment on LXFL 529 and with CCRF-CEM was > 100 µM (inactive) throughout. Besides, the GI50 with HL-60 was 52.8 µM (inactive); with TK-10, > 100 µM (inactive); in the experiment with EKVX, > 100 µM (inactive).

For `C/C(=N/NC(N)=S)C(CN1CCOCC1)C(C1=C(O)c2ccccc2OC1)c1ccccc1` (stereo not drawn), the GI50 was > 100 µM (inactive) with NCI-H23; 78 µM (inactive) with SNB-75; 93.1 µM (inactive) in the experiment with K562; 25.4 µM (inactive) in the experiment on SR; > 100 µM (inactive) with A549; > 100 µM (inactive) in the experiment with U-251. For the same compound, the GI50 in the experiment on UACC-257 was > 100 µM (inactive); in the experiment with OVCAR-3 it was > 100 µM (inactive); in the experiment on NCI-H460, > 100 µM (inactive); with SN12C, > 100 µM (inactive); in the experiment on LXFL 529 it was > 100 µM (inactive); with CCRF-CEM it was 60.7 µM (inactive). For the same compound, the GI50 was 21 µM (inactive) in the experiment with HL-60, > 100 µM (inactive) with TK-10 and > 100 µM (inactive) with EKVX.

Consider `CCOP(=O)(OCC)/C(C#N)=C/c1ccco1`, for which the GI50 in the experiment with NCI-H23, in the experiment with SNB-75, in the experiment with K562, in the experiment on SR, in the experiment with A549 and in the experiment with U-251 was > 100 µM (inactive) throughout. In addition, the GI50 in the experiment on UACC-257, in the experiment on NCI-H460, in the experiment with SN12C, in the experiment with LXFL 529, in the experiment on CCRF-CEM and with HL-60 was > 100 µM (inactive) each time. In addition, the GI50 with TK-10, with HOP-62 and with EKVX was > 100 µM (inactive) throughout.

For the compound `O=c1[nH]nc(Cc2ccc(Cl)cc2)n1/N=C/c1c[nH]c2ccccc12`, the GI50 with NCI-H23 is > 100 µM (inactive); with SNB-75 it was > 100 µM (inactive); with K562, > 100 µM (inactive); in the experiment with Hs-578T, > 100 µM (inactive); with NCI/ADR-RES it was 82.8 µM (inactive); in the experiment with SR, > 100 µM (inactive). The GI50 in the experiment on A549, in the experiment with U-251, in the experiment with UACC-257, with T47D, in the experiment with OVCAR-3 and in the experiment with NCI-H460 was > 100 µM (inactive) throughout. In addition, the GI50 in the experiment with SN12C, in the experiment with MDA-MB-435, with CCRF-CEM, in the experiment with HL-60, in the experiment with TK-10 and in the experiment on HOP-62 was > 100 µM (inactive) in each case. Moreover, the GI50 in the experiment on EKVX was > 100 µM (inactive).

Consider `Fc1cccc(F)c1C1SCc2nc3ccccc3n21` (stereo not drawn) [THIAZOLOBENZIMIDAZOLE], for which the GI50 is 45.5 µM (inactive) with NCI-H23; > 100 µM (inactive) with SNB-75; 36.5 µM (inactive) in the experiment on K562; > 100 µM (inactive) in the experiment with A549; > 100 µM (inactive) in the experiment on U-251; 60.8 µM (inactive) in the experiment on UACC-257. Also, the GI50 in the experiment with OVCAR-3 is 47.4 µM (inactive); with NCI-H460 it was 47.3 µM (inactive); with SN12C it was > 100 µM (inactive); in the experiment with LXFL 529, 60.4 µM (inactive); in the experiment on CCRF-CEM it was 52.4 µM (inactive); in the experiment with HL-60 it was 25.4 µM (inactive). The GI50 in the experiment on TK-10 is 61.4 µM (inactive); in the experiment on HOP-62, > 100 µM (inactive); in the experiment on EKVX, 64.6 µM (inactive).

Consider `COC(=O)/C=C1\CCC2[C@@H](C(=O)CC3[C@]2(C)CCC[C@@]3(C)C(=O)OC)C1C` (stereo partly drawn), for which the GI50 in the experiment with NCI-H23 is > 10 µM (inactive); with SNB-75 it was 18.5 µM (inactive); in the experiment on K562, 15 µM (inactive); in the experiment with A549, 20.2 µM (inactive); in the experiment with U-251 it was 33.3 µM (inactive); with UACC-257, 17.9 µM (inactive). In addition, the GI50 in the experiment on OVCAR-3 is 22.7 µM (inactive); with NCI-H460 it was 15.7 µM (inactive); in the experiment on SN12C, 24.8 µM (inactive); in the experiment with LXFL 529, 8.73 µM (inactive); in the experiment with CCRF-CEM, 9.2 µM (inactive); in the experiment on HL-60 it was 13.1 µM (inactive). Further, the GI50 is 19.5 µM (inactive) with TK-10, 28.9 µM (inactive) in the experiment on HOP-62 and 27.3 µM (inactive) in the experiment with EKVX.

For `Cc1ccc2nc(-c3ccccc3)cc(=O)n2c1`, the GI50 in the experiment with NCI-H23 was > 100 µM (inactive); in the experiment with SNB-75 it was > 100 µM (inactive); in the experiment with K562, > 100 µM (inactive); in the experiment with Hs-578T it was > 100 µM (inactive); with NCI/ADR-RES, 69.7 µM (inactive); in the experiment on SR it was > 100 µM (inactive). Further, the GI50 in the experiment on A549 was > 100 µM (inactive); with U-251, > 100 µM (inactive); in the experiment with UACC-257 it was > 10 µM (inactive); in the experiment on T47D, 38.6 µM (inactive); in the experiment on OVCAR-3, > 100 µM (inactive); in the experiment with NCI-H460, > 100 µM (inactive). Also, the GI50 with SN12C, in the experiment with MDA-MB-435, in the experiment with CCRF-CEM, in the experiment on HL-60, in the experiment with TK-10 and in the experiment on HOP-62 was > 100 µM (inactive) each time. Moreover, in the experiment with EKVX, the GI50 is 81.8 µM (inactive).

For `O=C(CSc1nnc(Cc2ccccc2)o1)Nc1ccc([N+](=O)[O-])cc1`, the GI50 with NCI-H23 was 89.7 µM (inactive); in the experiment on SNB-75, > 100 µM (inactive); in the experiment with K562, 40.2 µM (inactive); with A549, 59.4 µM (inactive); with U-251, > 100 µM (inactive); in the experiment with UACC-257, > 100 µM (inactive). In addition, the GI50 in the experiment with OVCAR-3 is > 100 µM (inactive); in the experiment with NCI-H460, > 100 µM (inactive); with SN12C, > 100 µM (inactive); in the experiment on LXFL 529 it was 78.2 µM (inactive); in the experiment on CCRF-CEM it was > 100 µM (inactive); with HL-60, 14.1 µM (inactive). The GI50 in the experiment on TK-10 was 62.2 µM (inactive); in the experiment with HOP-62, > 100 µM (inactive).

Regarding `NC(=O)NC(=O)c1ccc(NC(=O)CBr)cc1`, the GI50 in the experiment on NCI-H23 was 2.06 µM (inactive); in the experiment on SNB-75, 1.81 µM (inactive); in the experiment on K562 it was 0.705 µM (active); in the experiment with Hs-578T it was 2.31 µM (inactive); in the experiment on NCI/ADR-RES, 2.56 µM (inactive); in the experiment with SR, 0.333 µM (active). The GI50 with A549 is 14.1 µM (inactive); in the experiment with U-251, 0.984 µM (active); in the experiment on UACC-257 it was 1.94 µM (inactive); in the experiment on T47D, 1.67 µM (inactive); with OVCAR-3, 0.843 µM (active); in the experiment on NCI-H460, 4.66 µM (inactive). Besides, the GI50 is 0.561 µM (active) in the experiment with SN12C; 1.53 µM (inactive) in the experiment with MDA-MB-435; 0.0769 µM (active) in the experiment on CCRF-CEM; 1.54 µM (inactive) in the experiment with HL-60; 1.31 µM (inactive) in the experiment with TK-10; 1.94 µM (inactive) with HOP-62. In addition, in the experiment on EKVX, the GI50 was 2.38 µM (inactive).
